# In patent US20220326218A1, “COMPOSITION AND METHOD FOR INHIBITING BORC COMPLEX TO TREAT CANCERS WITH NF1 DEFICIENCY AND DYSREGULATED RAS SIGNALING” (THE TRUSTEES OF DARTMOUTH COLLEGE, priority 2019, published 2022):
# How the values were obtained:
# [1] = system: erg6Δira2Δ yeast; test: Yeast dose response curves, erg6Δira2Δ strain; assay type: cell-based, Saccharomyces cerevisiae; settings: 30° C., 18 h, 100 μM to 0.039 μM, normalized to DMSO
# Description: S. cerevisiae strains were plated at an OD600 of 0.05 in 96-well plates (Falcon) and treated with SC complete containing compound starting at 100 μM, followed by 2-fold serial dilutions to generate a 10-point range of concentrations normalized with DMSO; one row was treated with DMSO as a control. Yeast were incubated for 18 h. To process, the optical density was read using a Spectramax M2 (Molecular Devices) at a wavelength of 600 nm and normalized to DMSO. Each experiment was repeated 2-3 times with 4 technical replicates per experiment.
# A high-throughput screen in Saccharomyces cerevisiae lacking a yeast homologue of NF1, IRA2 (ira2Δ) was developed and carried out to identify tool compounds that elicited synthetic lethality with NF1 loss (15). ira2Δ yeast have increased RAS-GTP, which results in increased MAPK and PKA signaling analogous to the pathways that are activated in NF1-deficient Schwann cells (17). […]
# More than 5,100 structurally diverse compounds selected from and representative of a >340,000-compound library were screened. […] To determine whether Y102 was also effective in human tumor cells, the efficacy of Y102 was evaluated in two NF1-deficient human cancer cell line models of glioblastoma, U87-MG and U251-MG, and an NF1-deficient Neurofibromatosis type 1-associated MPNST cell line sNF96.2. […]
# [2] = system: U87-MG cells; test: Hoechst cell death viability assay, U87-MG; assay type: cell-based, human
# Description: Cells were plated at 2,500 cells/well in 96-well plates and allowed to adhere overnight. Medium was removed and replaced with media containing compound starting at 100 μM, followed by 2-fold serial dilutions to generate a 10-point range of concentrations normalized with DMSO; one row was treated with DMSO as a control. Cells were incubated for the indicated timepoints. Upon collection, media was removed, cells were rinsed with PBS, and stored at −80° C. until all plates were collected. To process cells, plates were thawed with PBS, incubated with 1× saline-sodium citrate (SSC) buffer with 0.02% sodium dodecyl sulfate (SDS) for 1 hour at 37° C., followed by staining with 1 μg/mL Hoechst 33258 (Pierce). […] using a Spectramax M2 at an excitation of 355 nm and an emission of 460 nm, and absorbance was normalized to DMSO. Each experiment was repeated 2-3 times with 4 technical replicates per experiment.
# [3] = system: PARP; test: Western immunoblotting for PARP; assay type: cell-based, human; settings: U87-MG
# Description: U87-MG cells were plated at 500,000 cells/well in 6-well plates and allowed to adhere overnight (Falcon). Medium was removed and replaced with fresh medium containing drugs or compounds for the indicated timepoints. Cells were collected after treatment by washing with PBS, harvested with trypsin plus agitation to detach cells, pelleted in a centrifuge and resuspended in PBS to wash. Cells were transferred to 1.5 mL microcentrifuge tubes, pelleted, and resuspended in RIPA lysis buffer (50 mM Tris pH 8.0, 150 mM NaCl, 1% nonidet P40, 0.5% sodium deoxycholate, and 0.05% SDS) containing 1 mM NaVO4, 1 mM NaF, 1 mM phenylmethylsulfonyl fluoride, 0.1 μg/mL antipain, 1 μM aprotinin, 100 μM benzamidine HCl, 0.1 μg/mL leupeptin, 0.1 μg/mL pepstatin, and 0.1 μg/mL soybean trypsin inhibitor. Protein was quantified using a BCA assay kit (Pierce). 50 μg of protein was prepared in 1× Laemmli sample buffer (50 mM Tris pH 6.8, 0.02% w/v bromophenol blue, 2% w/v SDS, 10% v/v glycerol, 1% v/v beta-mercaptoethanol, 12.5 mM EDTA) and separated by SDS-PAGE on a 4-15% polyacrylamide gradient gel (Bio-Rad). […]
smiles,measurement,setting,value
Cn1cnnc1S/C=C/C(=O)c1ccc(F)cc1 [Y102],effect on growth of erg6Δira2Δ yeast (OD600),[1],inhibitory effect
same,"growth inhibition, acute treatment of 2 hours compared to continuous treatment for 72 hours",[2],same degree of growth inhibition
same,reversibility of effects after a 2 hour treatment,[2],irreversible
same,concentration from which cell proliferation was inhibited,"[2]; continuous treatment, seven days, normalized to day zero plating",≥ 3.125 µM
same,sensitivity of NF1-deficient cell line to treatment,"[2]; up to 7 days, 100 μM to 0.039 μM, Hoechst 33258",sensitive
same,PARP western immunoblotting as check of absent caspase-3-mediated apoptosis,[3],confirmed
